This assay relates to Hamster pancreatic β cell strain HIT-T15 cells. Description: Action of promoting insulin secretion (Test Example 1). The assay is classed as cell-based. Particulars: Mesocricetus auratus, glucose 2 mM, 1 hour at 37° C., insulin in the supernatant, 0.0001 μM to 10 μM, read-out: EC50 (50% effect concentration, insulin secretion). The method, then:
Action of Promoting Insulin Secretion
Hamster pancreatic β cell strain HIT-T15 cells were subcultured by using a Ham's F-12K culture medium containing penicillin (100 unit/mL), streptomycin (100 μg/mL) and 10% fetal bovine serum. The cells were sown on a 24-well cell culture plate, cultured at 37° C. for 48 hours, and washed with a 0.10 albumin KRBH buffer. Subsequently, the cells were allowed to stand in the same buffer at 37° C. for 1 hour. Glucose was added thereto so as to give a final concentration of 2 mM, and the compound of the present invention that had been dissolved in dimethylsulfoxide at a concentration of 1.000-fold of the respective concentrations (from 0.0001 μM to 10 μM at a common ratio of 10) was further added under a condition that the compound was included in an amount of 0.1 volume % in the buffer. After the addition of the compound of the present invention, the cells were allowed to stand at 37° C. for 1 hour, and the concentration of the insulin included in the supernatant was measured by an insulin kit (SCETI Medical Labo K. K.). A hamster insulin standard solution (SHIBAYAGI Co., Ltd.) was used as a standard solution. A control to which only dimethylsulfoxide had been added was used. The results are shown in Table 8 as the 50% effect concentrations (EC50 values, 50% effect concentrations)) of the respective subject compounds. The EC50 values were calculated by using a statistical analysis program, SAS Pre-Clinical Package Ver 5.0 (SAS institute Japan Co., Tokyo).
For `CS(=O)(=O)c1ccc(Nc2ncnc3c(C4CCN(C(=O)Oc5ccccc5)CC4)coc23)c(F)c1` [Example 37, phenyl 4-(4-{[2-fluoro-4-(methylsulfonyl)phenyl]amino}furo[3,2-d]pyrimidin-7-yl)piperidine-1-carboxylate], the EC50 was 56.2 nM.

`CS(=O)(=O)c1ccc(Nc2ncnc3c(C4CCN(S(=O)(=O)C5CC5)CC4)coc23)c(F)c1` [Example 11, 7-[1-(cyclopropylsulfonyl)piperidin-4-yl]-N-[2-fluoro-4-(methylsulfonyl)phenyl]furo[3,2-d]pyrimidine-4-amine]: the EC50 came to 76.9 nM. Consider `CC(C)(C)COC(=O)N1CCC(c2coc3c(Nc4ccc(S(C)(=O)=O)cc4F)ncnc23)CC1` [Example 35, neopentyl 4-(4-{[2-fluoro-4-(methylsulfonyl)phenyl]amino}furo[3,2-d]pyrimidin-7-yl)piperidine-1-carboxylate], for which the EC50 turned out to be 58.4 nM. The same measure for `CC(C)(C)OC(=O)N1CCC(c2coc3c(Oc4ccc(S(C)(=O)=O)cc4)ncnc23)CC1` [Example 40, tert-butyl 4-(4-{4-(methylsulfonyl)phenoxy}furo[3,2-d]pyrimidin-7-yl)piperidine-1-carboxylate]: 10.7 nM; for `CS(=O)(=O)c1ccc(Nc2ncnc3c(C4CCN(c5ncc(F)cn5)CC4)coc23)c(F)c1` [Example 4, N-[2-fluoro-4-(methylsulfonyl)phenyl]-7-[1-(5-fluoropyrimidin-2-yl)piperidin-4-yl]furo[3,2-d]pyrimidine-4-amine]: 33.1 nM; for `CCc1cnc(N2CCC(c3coc4c(Nc5ccc(S(C)(=O)=O)cc5F)ncnc34)CC2)nc1` [Example 3, 7-[1-(5-ethylpyrimidin-2-yl)piperidin-4-yl]-N-[2-fluoro-4-(methylsulfonyl)phenyl]furo[3,2-d]pyrimidine-4-amine]: 14.3 nM. Next, `CC(C)OC(=O)N1CCC(c2coc3c(Nc4ccc(S(C)(=O)=O)cc4F)ncnc23)CC1` [Example 8, isopropyl 4-(4-{[2-fluoro-4-(methylsulfonyl)phenyl]amino}furo[3,2-d]pyrimidin-7-yl)piperidine-1-carboxylate]: 83.5 nM; `CS(=O)(=O)c1ccc(Nc2ncnc3c(C4CCN(c5ncc(C(F)(F)F)cn5)CC4)coc23)c(F)c1` [Example 31, N-[2-fluoro-4-(methylsulfonyl)phenyl]-7-{1-[5-(trifluoromethyl)pyrimidin-2-yl]piperidin-4-yl}furo[3,2-d]pyrimidine-4-amine]: 4.5 nM; `CS(=O)(=O)c1ccc(Nc2ncnc3c(C4CCN(C(=O)OCc5ccccc5)CC4)coc23)c(F)c1` [Example 7, benzyl 4-(4-{[2-fluoro-4-(methylsulfonyl)phenyl]amino}furo[3,2-d]pyrimidin-7-yl)piperidine-1-carboxylate]: 33.7 nM.

With `CS(=O)(=O)c1ccc(Nc2ncnc3c(C4CCN(c5ncc(Cl)cn5)CC4)coc23)c(F)c1` [Example 2, 7-[1-(5-chloropyrimidin-2-yl)piperidin-4-yl]-N-[2-fluoro-4-(methylsulfonyl)phenyl]furo[3,2-d]pyrimidine-4-amine], the EC50 turned out to be 4 nM.

For the compound `CS(=O)(=O)c1ccc(Nc2ncnc3c(C4CCN(C(=O)OCC(Cl)(Cl)Cl)CC4)coc23)c(F)c1` [Example 36, 2,2,2-trichloroethyl 4-(4-{[2-fluoro-4-(methylsulfonyl)phenyl]amino}furo[3,2-d]pyrimidin-7-yl)piperidine-1-carboxylate], the EC50 is 18.7 nM. Consider `CC(C)(C)OC(=O)N1CCC(c2coc3c(Oc4ccc(-n5cnnn5)cc4)ncnc23)CC1` [Example 41, tert-butyl 4-{4-[4-(1H-tetrazol-1-yl)phenoxy]furo[3,2-d]pyrimidin-7-yl}piperidine-1-carboxylate], for which the EC50 came to 42.9 nM.

For `CC(C)(C)OC(=O)N1CCC(c2coc3c(N4CCc5cc(S(C)(=O)=O)ccc54)ncnc23)CC1` [Example 24, tert-butyl 4-{4-[5-(methylsulfonyl)indolin-1-yl]furo[3,2-d]pyrimidin-7-yl}piperidine-1-carboxylate], the EC50 is 3.6 nM. On to `CC(C)(OC(=O)N1CCC(c2coc3c(Nc4ccc(S(C)(=O)=O)cc4F)ncnc23)CC1)C(F)(F)F` [Example 33, 1,1,1-trifluoro-2-methylpropan-2-yl 4-(4-{[2-fluoro-4-(methylsulfonyl)phenyl]amino}furo[3,2-d]pyrimidin-7-yl)piperidine-1-carboxylate], for which the EC50 came out at 15.1 nM. Next, `CC(C)(C)OC(=O)N1CCC(c2coc3c(Nc4ccc(S(C)(=O)=O)cc4F)ncnc23)CC1` [Example 1, Tert-Butyl 4-(4-{[2-fluoro-4-(methylsulfonyl)phenyl]amino}furo[3,2-d]pyrimidin-7-yl)piperidine-1-carboxylate]: 5.3 nM; `CCc1cnc(N2CCC(c3coc4c(N5CCc6cc(S(C)(=O)=O)ccc65)ncnc34)CC2)nc1` [Example 25, 7-[1-(5-ethylpyrimidin-2-yl)piperidin-4-yl]-4-[5-(methylsulfonyl)indolin-1-yl]furo[3,2-d]pyrimidine]: 16.4 nM; `CS(=O)(=O)c1ccc(Nc2ncnc3c(C4CCN(S(=O)(=O)C5CCCCC5)CC4)coc23)c(F)c1` [Example 12, 7-[1-(cyclohexylsulfonyl)piperidin-4-yl]-N-[2-fluoro-4-(methylsulfonyl)phenyl]furo[3,2-d]pyrimidine-4-amine]: 9.1 nM. The same measure for `CS(=O)(=O)c1ccc(Nc2ncnc3c(C4CCN(c5ncc(Br)cn5)CC4)coc23)c(F)c1` [Example 5, 7-[1-(5-bromopyrimidin-2-yl)piperidin-4-yl]-N-[2-fluoro-4-(methylsulfonyl)phenyl]furo[3,2-d]pyrimidine-4-amine]: 12.4 nM. Regarding `CC(C)(C)OC(=O)N1CCC(c2coc3c(Oc4ccc(S(C)(=O)=O)c(F)c4)ncnc23)CC1` [Example 21, tert-butyl 4-{4-[3-fluoro-4-(methylsulfonyl)phenoxy]furo[3,2,d]pyrimidin-7-yl}piperidine-1-carboxylate], the EC50 amounted to 51.9 nM. The same measure for `CC(C)(C)OC(=O)N1CCC(c2csc3c(Nc4ccc(S(C)(=O)=O)cc4F)ncnc23)CC1` [Example 27, tert-butyl 4-(4-{[2-fluoro-4-(methylsulfonyl)phenyl]amino}thieno[3,2-d]pyrimidin-7-yl)piperidine-1-carboxylate]: 50.7 nM. With `CS(=O)(=O)c1ccc(Nc2ncnc3c(C4CCN(c5ccc(C(F)(F)F)cn5)CC4)coc23)c(F)c1` [Example 6, N-[2-fluoro-4-(methylsulfonyl)phenyl]-7-{1-[5-(trifluoromethyl)pyridin-2-yl]piperidin-4-yl}furo[3,2-d]pyrimidine-4-amine], the EC50 worked out at 20.5 nM.

(Values after US8765771B2, “Condensed pyridine or condensed pyrimidine derivative, and medicinal agent comprising same” (Kowa Co., Ltd., priority 2010, dated 2014).)
